# Laboratory results: US20070237734A1, “ANTI-WRINKLE COSMETIC COMPOSITION” (L'OREAL, priority 2006, published 2007)
# Test system: normal human fibroblasts
# Assay: Dermo-decontracting effect on dermal equivalent model (collagen matrix inoculated with fibroblasts), spontaneous contraction
# Type: cell-based
# Conditions: for % contraction: test compound 10 μM, dermal equivalent surface area at 0, 4, 8 and 24 hours, with respect to the control
# From the text: The principle of this test consists in studying the effect of the test product on a dermal equivalent model composed of a collagen matrix inoculated with normal human fibroblasts.
# These conditions are intended to mimic in vitro the dermal contractile phenomena which occur during facial expressions. This is because, under these conditions, the cells spontaneously express tensile forces which induce retraction of the collagen gel. […] The measurement of this surface area makes it possible to evaluate the relaxing effects of the substances brought into contact beforehand with the dermal equivalent.
# Two series of attached dermal equivalents comprising normal human fibroblasts are prepared: a control series without any treatment and a series treated with the test compound (10 μM). The experiment is repeated three times.
# The dermal equivalents are prepared as described in Asselineau et al., Exp. Cell. Res., 1985, 159, 536-539; Models in Dermatology, 1987, vol. 3, pp. 1-7, in the following proportions:
# The treated dermal equivalent differs from the control dermal equivalent in that 10 μM of the test compound are added thereto.
# The collagen used is type I collagen (commercial solution). It is extracted from calf skin by acid hydrolysis and stored in an acidic medium at +4° C. It polymerizes naturally by reheating to 37° C. and by decreasing the degree of acidity. The collagen is dialysed beforehand against successive baths of water+acetic acid.
# The protocol is as follows: the 1.76×MEM medium is introduced, in the presence of additives (1% glutamine, 1% non-essential amino acids, 1% sodium pyruvate, 1% fungizone and 1% penicillin/streptomycin), the foetal calf serum and the 0.1N NaOH solution, into a 50 ml centrifuge tube stored in crushed ice. The fibroblasts, isolated from human skin explants, are then added at the concentration of 1.5×10^5 cells per 1 ml of culture medium.
# A volume/volume mixture of collagen in acetic acid at 1/1000 is then slowly added, against the wall of the tube, so as to observe the appearance of a whitish cloud.
# The combined product is then carefully mixed and distributed in the wells of a 12-well culture plate (Costar type, reference 3512) in a proportion of 2 ml of mixture per well. The final cell concentration is […], with a final concentration of collagen of 1 mg/ml. The culture plate is then placed in an incubator at 37° C. with 5% CO2.
# Once formed after polymerization of the collagen, the dermal equivalents are left adhered to the culture support for 3 days and then detached from the support so that the contraction can begin. These detached dermal equivalents are taken out of the incubator in order to take images for the purpose of measuring their surface area, this being for each point of the kinetics of contraction (0, 4, 8 and 24 hours). They are immediately placed back in the incubator between each measurement point.
# The evaluation of the spontaneous contraction of the treated (with the test compound) and control (without test compound) dermal equivalents is carried out by measuring their surface area at the different times mentioned after the beginning of the spontaneous contraction.
# For this, a digital image is acquired for each treated or untreated dermal equivalent by means of a camera (CCD camera-Iris Sony DXC-107P) and the surface area is subsequently calculated on each image by means of an image analysis system (Zeiss Axiovision 3.0). […]
smiles,measurement,setting,value
"Nc1ncnc2c1ncn2[C@@H]1O[C@H](CO)[C@@H](O)[C@H]1O [Adenosine, reference compound]",% contraction,,−15%
same,"reduce the contraction of the fibroblasts, on average over the duration of the experiment, with respect to the control",tested at 10 μM,15%
"CCOC[C@H]1O[C@@H](n2cnc3c(N)ncnc32)[C@@H]2OC(C)(C)O[C@@H]21 [Compound D, 2′,3′-isopropylidene-5′-ethyladenosine]",% contraction,,−21%
"CCCCCCCCOC[C@H]1O[C@@H](n2cnc3c(N)ncnc32)[C@@H]2OC(C)(C)O[C@@H]21 [Compound E, 2′,3′-isopropylidene-5′-octyladenosine]",% contraction,,−26%
"CC(=O)OC[C@H]1O[C@@H](n2cnc3c(N)ncnc32)[C@@H]2OC(C)(C)O[C@@H]21 [Compound G, 2′,3′-isopropylidene-5′-acetyladenosine]",% contraction,,−30%
